pIC50: −log10 of the molar value. Values after ≈ are worked out from the molar mass of the structure shown. Active and inactive are the calls of the source. The calls are words filed in the database; no cut-off is given here.
Experiments:
[1] = Clearance in male ICR mouse at 1 mg/kg, iv measured upto 36 hrs by LC-MS/MS analysis; type: ADME, organism-based; conditions: in vivo
[2] = Drug concentration in mouse plasma at 30 mg/kg, po; type: ADME, organism-based; conditions: in vivo
[3] = AUC (0 to t) in male ICR mouse at 10 mg/kg, po measured upto 36 hrs by LC-MS/MS analysis; type: ADME, organism-based; conditions: in vivo
[4] = Selectivity index, ratio of IC50 for antiproliferative activity against mouse B16-F10 cells harboring wild type MTAP assessed as inhibition of cell viability to IC50 for antiproliferative activity against MTAP knockout mouse B16-F10 cells assessed as inhibition of cell viability; type: functional
MIA PaCa-2 = experiment: Antitumor activity against MTAP null human MIA PaCa-2 cells xenografted in mouse assessed as tumor growth inhibition at 60 mg/kg, po measured after 28 days; type: functional, organism-based; conditions: time 28.0 day
B16-F10 [5] = experiment: Antitumor activity against MTAP-knockout mouse B16-F10 cells implanted mouse assessed as reduction in SAM level in tumor at 30 to 60 mg/kg, po administered for 10 days and measured after 12 hrs; type: functional, organism-based; conditions: dose 30-60 mg/kg, time 10.5 day
B16-F10 [6] = experiment: Antiproliferative activity against mouse B16-F10 cells harboring wild type MTAP assessed as inhibition of cell viability measured for 96 hrs by SRB assay; type: functional, cell-based; conditions: B16-F10, 96 h
NCI-H838 = experiment: Antiproliferative activity against MTAP null human NCI-H838 cells assessed as inhibition of cell viability measured for 96 hrs by SRB assay; type: functional, cell-based
BXPC-3 = experiment: Antiproliferative activity against MTAP null human BXPC-3 cells assessed as inhibition of cell viability measured for 96 hrs by SRB assay; type: functional, cell-based
Cytochrome P450 2C9 = Cytochrome P450 2C9 (Homo sapiens, UniProt P11712); experiment: Inhibition of CYP2C9 in human liver microsomes using diclofenac as substrate incubated for 10 mins in presence of NADPH by LC-MS/MS analysis; type: ADME, Microsome
B16-F10 [7] = experiment: Inhibition of MAT2A in MTAP knockout mouse B16-F10 cells assessed as reduction in SAM level measured for 4 hrs by immunoblotting analysis; type: cell-based; conditions: dose <= 1.0 µM
NCI-H1437 = experiment: Antiproliferative activity against MTAP null human NCI-H1437 cells assessed as inhibition of cell viability measured for 96 hrs by SRB assay; type: functional, cell-based
[8] = Half life in male ICR mouse at 10 mg/kg, po measured upto 36 hrs by LC-MS/MS analysis; type: ADME, organism-based; conditions: in vivo
MCF7 = experiment: Antiproliferative activity against MTAP null human MCF7 cells assessed as inhibition of cell viability measured for 96 hrs by SRB assay; type: functional, cell-based
[9] = biological target: Protein arginine N-methyltransferase 5 (Homo sapiens) (UniProt O14744); experiment: Inhibition of PRMT5 in MTAP-null human MIA PaCa-2 cells incubated for 24 hrs by Western blot analysis; type: cell-based
SF-126 [10] = experiment: Induction of DNA damage in MTAP knockout human SF-126 cells assessed as increase in gammaH2AX level at 0.1 to 10 uM measured for 96 hrs by Western blot analysis; type: functional, cell-based; conditions: dose 0.1-10 µM
[11] = Lipophilicity, LogD of the compound in 1-Octanol/PBS by shake flask method; type: physicochemical
[12] = AUC (0 to t) in male ICR mouse at 1 mg/kg, iv measured upto 36 hrs by LC-MS/MS analysis; type: ADME, organism-based; conditions: in vivo
B16-F10 [13] = experiment: Antitumor activity against mouse B16-F10 cells harboring wild type MTAP implanted in mouse assessed as reduction in tumor volume at 30 to 60 mg/kg, po administered for 10 days and measured after 12 days; type: functional, organism-based; conditions: dose 30-60 mg/kg, time 22.0 day
[14] = Toxicity in ICR mouse at 500 mg/kg, po measured for 7 days; type: organism-based; conditions: in vivo, 168 h, time 7 day
[15] = Selectivity index, ratio of IC50 for antiproliferative activity against MTAP knockout human SF-126 cells to IC50 for antiproliferative activity against human SF-126 cells harboring wild type MTAP; type: functional
[16] = Cmax in male ICR mouse at 1 mg/kg, iv measured upto 36 hrs by LC-MS/MS analysis; type: ADME, organism-based; conditions: in vivo
[17] = biological target: T1, S-adenosylmethionine synthase isoform type-2 (Homo sapiens, UniProt P31153); experiment: Inhibition of MAT2A in human MIA PaCa-2 cells assessed as reduction in SAM level measured for 4 hrs by immunoblotting analysis; type: cell-based; conditions: dose <= 1.0 µM
Daoy = experiment: Antitumor activity against human Daoy cells xenografted in mouse assessed as reduction in SDMA level in tumor at 30 mg/kg, po measured after 28 days; type: functional, organism-based; conditions: time 28.0 day
[18] = Plasma protein binding in mouse assessed as unbound fraction; type: ADME, cell-free
B16-F10 [19] = experiment: Antiproliferative activity against MTAP knockout mouse B16-F10 cells assessed as inhibition of cell proliferation measured for 96 hrs by SRB assay; type: functional, cell-based
[20] = biological target: T1, S-adenosylmethionine synthase isoform type-2; experiment: Inhibition of MAT2A in MTAP null human MIA PaCa-2 cells assessed as reduction in SAM level measured for 4 hrs by immunoblotting analysis; type: cell-based; conditions: dose <= 1.0 µM
MKN-45 = experiment: Antiproliferative activity against MTAP null human MKN-45 cells assessed as inhibition of cell viability measured for 96 hrs by SRB assay; type: functional, cell-based
B16-F10 [21] = experiment: Antiproliferative activity against mouse B16-F10 cells harboring MTAP D220A mutant assessed as inhibition of cell proliferation measured for 96 hrs by SRB assay; type: functional, cell-based
SF-126 [22] = experiment: Induction of DNA damage in MTAP knockout human SF-126 cells assessed as increase in gammaH2AX level at 0.1 to 10 uM measured for 96 hrs by immunofluorescence analysis; type: functional, cell-based; conditions: dose 0.1-10 µM
B16-F10 [23] = experiment: Antiproliferative activity against MTAP knockout mouse B16-F10 cells assessed as inhibition of cell viability measured for 96 hrs by SRB assay; type: functional, cell-based; conditions: B16-F10, 96 h
Cytochrome P450 1A2 = biological target: T2, Cytochrome P450 1A2 (Homo sapiens, UniProt P05177); experiment: Inhibition of CYP1A2 in human liver microsomes using phenacetin as substrate incubated for 10 mins in presence of NADPH by LC-MS/MS analysis; type: ADME, Microsome
T2 sequence (P05177 whole entry): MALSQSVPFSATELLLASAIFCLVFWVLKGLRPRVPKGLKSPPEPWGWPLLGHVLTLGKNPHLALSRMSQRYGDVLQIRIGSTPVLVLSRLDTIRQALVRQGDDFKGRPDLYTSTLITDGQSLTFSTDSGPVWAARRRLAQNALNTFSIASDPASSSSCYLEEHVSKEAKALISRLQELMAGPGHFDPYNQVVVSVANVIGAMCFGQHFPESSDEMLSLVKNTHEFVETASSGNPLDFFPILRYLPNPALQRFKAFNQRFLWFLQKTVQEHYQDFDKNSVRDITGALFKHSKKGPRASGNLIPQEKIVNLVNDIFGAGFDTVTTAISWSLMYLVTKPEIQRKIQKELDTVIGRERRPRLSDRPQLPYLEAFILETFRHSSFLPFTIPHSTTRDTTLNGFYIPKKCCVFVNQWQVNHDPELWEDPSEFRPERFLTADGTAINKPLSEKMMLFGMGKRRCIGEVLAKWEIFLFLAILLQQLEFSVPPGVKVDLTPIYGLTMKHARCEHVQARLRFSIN

[24] = Kinetic solubility of compound in phosphate buffer at pH 7.4; type: physicochemical; conditions: read-out: Kinetic_solubility

T1 sequence (P31153 whole entry, looked up, canonical isoform): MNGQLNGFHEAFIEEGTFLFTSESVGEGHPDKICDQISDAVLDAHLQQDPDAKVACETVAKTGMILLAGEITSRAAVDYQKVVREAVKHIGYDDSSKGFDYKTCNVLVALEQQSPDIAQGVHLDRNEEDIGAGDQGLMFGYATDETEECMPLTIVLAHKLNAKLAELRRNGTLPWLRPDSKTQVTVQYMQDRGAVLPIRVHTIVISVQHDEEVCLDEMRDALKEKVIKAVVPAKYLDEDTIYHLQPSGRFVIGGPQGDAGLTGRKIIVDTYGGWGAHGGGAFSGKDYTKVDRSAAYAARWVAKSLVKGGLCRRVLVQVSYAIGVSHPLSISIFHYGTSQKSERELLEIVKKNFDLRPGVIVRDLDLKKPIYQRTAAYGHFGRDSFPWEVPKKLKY
Sequence of Cytochrome P450 2C9 (P11712 whole entry): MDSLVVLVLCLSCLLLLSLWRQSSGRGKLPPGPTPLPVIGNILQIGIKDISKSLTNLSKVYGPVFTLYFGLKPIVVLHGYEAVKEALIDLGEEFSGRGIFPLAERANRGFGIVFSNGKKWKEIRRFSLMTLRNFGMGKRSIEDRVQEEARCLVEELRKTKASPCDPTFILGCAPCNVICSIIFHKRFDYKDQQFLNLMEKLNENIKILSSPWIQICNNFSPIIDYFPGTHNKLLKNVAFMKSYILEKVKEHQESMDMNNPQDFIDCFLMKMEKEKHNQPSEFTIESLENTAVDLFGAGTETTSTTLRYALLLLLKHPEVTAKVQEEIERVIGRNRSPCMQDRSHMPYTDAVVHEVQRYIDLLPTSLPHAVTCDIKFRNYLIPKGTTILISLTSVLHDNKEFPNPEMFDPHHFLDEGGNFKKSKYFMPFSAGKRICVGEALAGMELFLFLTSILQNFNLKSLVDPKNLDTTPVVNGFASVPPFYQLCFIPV
Sequence of Protein arginine N-methyltransferase 5 (Homo sapiens) (O14744 whole entry): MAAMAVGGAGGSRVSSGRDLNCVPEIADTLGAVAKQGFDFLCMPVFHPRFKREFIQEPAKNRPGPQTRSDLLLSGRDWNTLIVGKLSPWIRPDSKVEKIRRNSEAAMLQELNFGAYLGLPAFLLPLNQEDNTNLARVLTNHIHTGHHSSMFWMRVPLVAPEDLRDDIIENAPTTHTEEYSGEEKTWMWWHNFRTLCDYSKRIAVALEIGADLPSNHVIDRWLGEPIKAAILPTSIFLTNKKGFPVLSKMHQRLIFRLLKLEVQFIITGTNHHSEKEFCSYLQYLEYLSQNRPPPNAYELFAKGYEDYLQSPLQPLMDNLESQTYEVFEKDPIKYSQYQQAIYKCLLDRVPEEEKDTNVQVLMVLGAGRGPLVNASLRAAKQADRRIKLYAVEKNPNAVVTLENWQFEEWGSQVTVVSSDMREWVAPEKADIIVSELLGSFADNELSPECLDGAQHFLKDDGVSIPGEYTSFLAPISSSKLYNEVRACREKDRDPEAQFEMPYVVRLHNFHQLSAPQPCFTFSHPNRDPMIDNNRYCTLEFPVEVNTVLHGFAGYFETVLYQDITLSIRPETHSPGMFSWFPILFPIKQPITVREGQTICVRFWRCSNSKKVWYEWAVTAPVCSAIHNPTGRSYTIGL

Cn1cnc2ccc(-c3nc4ccc(C5CC5)cc4n(-c4ccc(OC(F)F)cc4)c3=O)cc21
clearance [1]: 5.17 mL/min/kg
Drug uptake [2]: Active
AUC(0-t) at 36 h [3]: 36500 ng·h/mL
Ratio IC50 [4]: >46.5
TGI (MIA PaCa-2): Active
Activity (B16-F10 [5]): Active
pIC50 (B16-F10 [6]): < 4.70
Activity (NCI-H838): Active
Activity (BXPC-3): Active
pIC50 (Cytochrome P450 2C9): 4.90
inhibition (B16-F10 [7]): Dose-dependent-effect
Activity (NCI-H1437): Active
half-life [8]: 6.73 h
Activity (MCF7): Active
inhibition [9]: Active
Activity (SF-126 [10]): Active
logD [11]: 3.69
AUC(0-t) at 36 h [12]: 3100 ng·h/mL
Activity (B16-F10 [13]): Active
Activity [14]: Non-toxic
Ratio IC50 [15]: >57
Cmax [16]: 985 ng/mL
inhibition [17]: Dose-dependent-effect
Activity (Daoy): Active
fraction unbound [18]: 0.016
Activity (B16-F10 [19]): Active
inhibition [20]: Dose-dependent-effect
Activity (MKN-45): Active
Activity (B16-F10 [21]): inactive
Activity (SF-126 [22]): Active
pIC50 (B16-F10 [23]): 6.37
pIC50 (Cytochrome P450 1A2): < 4.52
solubility kinetic [24]: 3.11 µM (≈ 1.43 µg/mL)

From ChEMBL document CHEMBL6096692, “Discovery of 2(1H)-Quinoxalinone Derivatives as Potent and Selective MAT2A Inhibitors for the Treatment of MTAP-Deficient Cancers” (J Med Chem, 2025)
